{"source": "paper PMC3983391", "about": "(Journal of medicinal chemistry, 2014)", "key": {"[1]": {"assay": "Toxicity in the nude mouse MCF7 xenograft study", "settings": "nude mice; for death: dead/total"}, "[2]": {"settings": "data reported previously; cited from earlier work"}, "[3]": {"test_system": "human tumor cell line (HTCL) panel (A549, KB, KBvin, DU145)", "assay": "SRB antiproliferative activity, ranges over the HTCL panel", "format": "cell-based", "settings": "read-out: GI50 range over HTCL panel"}, "A549 cells [4]": {"test_system": "A549 cells", "assay": "Cell cycle analysis by propidium iodide flow cytometry", "format": "cell-based, human", "settings": "A549, 24 h; 5f 3 nM, colchicine 300 nM"}, "A549 cells [5]": {"test_system": "A549 cells", "assay": "Immunocytochemistry of cellular microtubules", "format": "cell-based, human", "settings": "A549, 24 h; 5f 3 nM, paclitaxel 100 nM, colchicine 100 nM"}, "[6]": {"test_system": "tubulin (vinblastine site)", "assay": "Competitive inhibition assay, BODIPY FL-vinblastine binding to tubulin", "parameters": "species or system dog", "settings": "tubulin 4 μM, BODIPY FL-vinblastine 2 μM; even at 30–100 μM"}, "MCF7 tumor xenografts": {"test_system": "MCF7 tumor xenografts", "assay": "Nude mouse MCF7 xenograft antitumor assay", "format": "in vivo", "settings": "4 mg/kg i.v. every 3 days; p < 0.05 from day 10 onward"}}, "note": "“Also recorded” adds a separate entry of the source."}
{"smiles": "COc1ccc2c(c1)CCCN2c1nc(Cl)nc2ccccc12", "note": "[1a, 2-chloro-4-(6-methoxy-3,4-dihydroquinolin-1(2H)-yl)quinazoline]", "values": [{"measurement": "death", "setting": "[1]; 4 mg/kg i.v., Q3D × 6", "result": "0/5"}]}
{"smiles": "COc1ccc2c(c1)CCCN2c1nc(C)nc2ccccc12", "note": "[1b, 2-methyl-4-(6-methoxy-3,4-dihydroquinolin-1(2H)-yl)quinazoline]", "values": [{"measurement": "human liver microsome t1/2", "setting": "[2]", "result": 25.2, "unit": "min"}, {"measurement": "death", "setting": "[1]; 4 mg/kg i.v., Q3D × 6", "result": "1/6"}]}
{"smiles": "Cc1ccc2c(c1)CCCN2c1nc(Cl)nc2ccccc12", "note": "[4a, 2-Chloro-4-(N-(6-methyl-3,4-dihydroquinolinyl))quinazoline]", "values": [{"measurement": "GI50", "setting": "[3]", "result": "43 to 57", "unit": "nM"}]}
{"smiles": "Cc1ccc2c(c1)CCCN2c1nc(C)nc2ccccc12", "note": "[4b, 2-Methyl-4-(N-(6-methyl-1,2,3,4-tetrahydroquinolinyl))-quinazoline]", "values": [{"measurement": "GI50", "setting": "[3]", "result": "169 to 211", "unit": "nM"}]}
{"smiles": "Cc1nc(N2CCCc3cc(Br)ccc32)c2ccccc2n1", "note": "[4c, 4-(N-(6-Bromo-1,2,3,4-tetrahydroquinolinyl))-2-methylqui-nazoline]", "values": [{"measurement": "GI50", "setting": "[3]", "result": "169 to 211", "unit": "nM"}]}
{"smiles": "COc1ccc2c(c1)C(=O)CCN2c1nc(Cl)nc2ccccc12", "note": "[5a, 2-Chloro-4-(N-(6-methoxy-2,3-dihydro-4-oxoquinolinyl))-quinazoline]", "values": [{"measurement": "GI50", "setting": "[3]", "result": "27 to 33", "unit": "nM"}]}
{"smiles": "COc1ccc2c(c1)C(=O)CCN2c1nc(C)nc2ccccc12", "note": "[5b, 4-(N-(6-Methoxy-2,3-dihydro-4-oxoquinolinyl))-2-methyl-quinazoline]", "values": [{"measurement": "GI50", "setting": "[3]", "result": "19 to 24", "unit": "nM"}]}
{"smiles": "COc1ccc2c(c1)C(O)CCN2c1nc(C)nc2ccccc12", "note": "(centres unmarked) [5c, 4-(N-(4-Hydroxy-6-methoxy-1,2,3,4-tetrahydroquinolinyl))-2-methylquinazoline]", "values": [{"measurement": "GI50", "setting": "[3]", "result": "17 to 19", "unit": "nM"}]}
{"smiles": "COc1ccc2c(c1)OCCN2c1nc(Cl)nc2ccccc12", "note": "[5d, 2-Chloro-4-(N-(7-methoxy-3,4-dihydro-2H-benzo[b][1,4]-oxazinyl))quinazoline]", "values": [{"measurement": "GI50", "setting": "[3]", "result": "153 to 211", "unit": "nM"}]}
{"smiles": "COc1ccc2c(c1)OCCN2c1nc(C)nc2ccccc12", "note": "[5e]", "values": [{"measurement": "GI50", "setting": "[3]", "result": "153 to 211", "unit": "nM"}]}
{"smiles": "COc1ccc2c(c1)NC(=O)CN2c1nc(C)nc2ccccc12", "note": "[5f, 2-Methyl-4-(7-methoxy-2-oxo-3,4-dihydroquinoxalin-4(1H)-yl)quinazoline]", "values": [{"measurement": "GI50", "setting": "[3]", "result": "1.9 to 3.2", "unit": "nM"}, {"measurement": "effect on the cell cycle", "setting": "A549 cells [4]", "result": "arrested at the G2/M phase"}, {"measurement": "effect on cellular microtubule network", "setting": "A549 cells [5]", "result": "microtubule network disappeared"}, {"measurement": "effect on binding of BODIPY FL-vinblastine to tubulin", "setting": "[6]", "result": "did not significantly change; also recorded: did not compete"}, {"measurement": "toxicity observation", "setting": "[1]; 4 mg/kg i.v. every 3 days, 4 mg/kg", "result": "toxicity and death; also recorded: all seven mice died; also recorded: death of all treated mice"}, {"measurement": "death", "setting": "[1]; 4 mg/kg i.v., Q3D × 6", "result": "7/7"}]}
{"smiles": "COc1ccc2c(c1)N(C)C(=O)CN2c1nc(C)nc2ccccc12", "note": "[5g, 2-Methyl-4-(1-methyl-7-methoxy-2-oxo-3,4-dihydroquinox-alin-4-yl)quinazoline]", "values": [{"measurement": "GI50", "setting": "[3]", "result": "17 to 25", "unit": "nM"}, {"measurement": "growth of MCF7 tumor xenografts (tumor volume vs control)", "setting": "MCF7 tumor xenografts", "result": "significantly inhibited"}, {"measurement": "body weight change (%)", "setting": "[1]; 4 mg/kg i.v., Q3D × 6", "result": "+2.28%"}, {"measurement": "death", "setting": "[1]; 4 mg/kg i.v., Q3D × 6", "result": "0/7"}]}
{"smiles": "COc1ccc2c(c1)CCN2c1nc(Cl)nc2ccccc12", "note": "[5h, 2-Chloro-4-(N-(5-methoxy)indolinyl)quinazoline]", "values": [{"measurement": "GI50", "setting": "[3]", "result": "170 to 320", "unit": "nM"}]}
{"smiles": "COc1ccc2c(c1)CCN2c1nc(C)nc2ccccc12", "note": "[5i, 4-(N-(5-Methoxy)indolinyl)-2-methylquinazoline]", "values": [{"measurement": "GI50", "setting": "[3]", "result": "170 to 320", "unit": "nM"}]}
{"smiles": "COc1ccc2c(c1)CCCCN2c1nc(C)nc2ccccc12", "note": "[5k, 4-(N-(7-Methoxy-2,3,4,5-tetrahydro-1H-benzo[b]azepinyl))-2-methylquinazoline]", "values": [{"measurement": "GI50", "setting": "[3]", "result": "18 to 21", "unit": "nM"}]}
{"smiles": "COc1ccc2c(c1)CCCN(c1nc(Cl)nc3ccccc13)C2", "note": "[5l, 2-Chloro-4-(N-(7-methoxy-2,3,4,5-tetrahydro-1H-benzo[c]-azepinyl))quinazoline]", "values": [{"measurement": "GI50", "setting": "[3]", "result": "5450 to 19600", "unit": "nM"}]}
{"smiles": "COc1ccc2c(c1)CCCN(c1nc(C)nc3ccccc13)C2", "note": "[5m, 4-(N-(7-Methoxy-2,3,4,5-tetrahydro-1H-benzo[c]azepinyl))-2-methylquinazoline]", "values": [{"measurement": "GI50", "setting": "[3]", "result": "5450 to 19600", "unit": "nM"}]}
{"smiles": "COc1cc2c(c(OC)c1OC)-c1ccc(OC)c(=O)cc1[C@@H](NC(C)=O)CC2", "note": "[colchicine, reference compound]", "values": [{"measurement": "effect on the cell cycle", "setting": "A549 cells [4]", "result": "arrested at the G2/M phase"}, {"measurement": "effect on cellular microtubule network", "setting": "A549 cells [5]", "result": "microtubule network disappeared"}]}
{"smiles": "CC(=O)O[C@H]1C(=O)[C@@]2(C)[C@H]([C@H](OC(=O)c3ccccc3)[C@]3(O)C[C@H](OC(=O)[C@H](O)[C@@H](NC(=O)c4ccccc4)c4ccccc4)C(C)=C1C3(C)C)[C@]1(OC(C)=O)CO[C@@H]1C[C@@H]2O", "note": "[paclitaxel]", "values": [{"measurement": "effect on cellular microtubule network", "setting": "A549 cells [5]", "result": "retained a spindle-shaped microtubule network"}]}
